The text below walks through data of US12252524B2, “GIP/GLP1 co-agonist compounds” (Eli Lilly and Company, priority 2018, dated 2025).

Where two headings read alike, the source gives them in different places. Numbered stars: 1 amine (or outer) side, 2 acyl side, 3 side chain; on linkers, the order of the positions; unused ones are H or OH. Square brackets hold non-standard residues; d marks the D form. Side chains are listed from the residue outwards. Peptide text beside a SMILES is read from it. * marks the point of attachment. C20 diacid = O=C(O)CCCCCCCCCCCCCCCCCCC(=O)*; C18 diacid = O=C(O)CCCCCCCCCCCCCCCCC(=O)*; αMePhe(2-F) = C[C@](N)(Cc1ccccc1F)C(=O)O; γGlu = O=C(O)[C@H](CCC(=O)[*:2])N[*:1]; αMeL = CC(C)C[C@](C)(N)C(=O)O; Orn = NCCC[C@H](N)C(=O)O; AEEA = NCCOCCOCC(=O)O; Aib = CC(C)(N)C(=O)O

The target in test [1] is T1, human Gcg receptor (Homo sapiens, UniProt P47871).
T1 construct: expressed in transfected cells; crude membranes
In words: [125I]-Glucagon binding (SPA), human Gcg receptor. A digest of the protocol:
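Cell pellets were lysed in hypotonic Tris buffer, pH 7.5, homogenized, and spun at low then high speed to give crude membranes. Ki was derived from the fitted IC50.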

Test [2] addresses human GLP-1 receptor (GLP-1R) (Homo sapiens, UniProt P43220). In words: cAMP pharmacological functional assay in presence of casein, hGLP-1R. It counts as cell-based.
For test [3], the target named is T2, gastric inhibitory peptide receptor (GIPR) (Homo sapiens, UniProt P48546).
T2 sequence (P48546 22-466): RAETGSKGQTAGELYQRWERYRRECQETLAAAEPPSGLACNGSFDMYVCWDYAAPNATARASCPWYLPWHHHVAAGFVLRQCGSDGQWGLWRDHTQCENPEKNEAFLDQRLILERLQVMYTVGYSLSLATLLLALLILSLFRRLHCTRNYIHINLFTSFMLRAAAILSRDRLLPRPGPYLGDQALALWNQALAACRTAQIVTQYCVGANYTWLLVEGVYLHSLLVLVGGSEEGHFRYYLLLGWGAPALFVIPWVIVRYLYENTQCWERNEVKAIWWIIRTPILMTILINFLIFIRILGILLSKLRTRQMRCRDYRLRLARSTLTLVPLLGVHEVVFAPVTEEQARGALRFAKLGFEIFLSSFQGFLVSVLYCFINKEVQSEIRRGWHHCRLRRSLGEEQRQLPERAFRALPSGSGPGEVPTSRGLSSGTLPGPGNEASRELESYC
In words: cAMP pharmacological functional assay in presence of casein, hGIPR. It counts as cell-based.

Test [4] addresses T3, human GLP-1R (Homo sapiens, UniProt P43220). In words: [125I]-GLP-1 binding (SPA), human GLP-1 receptor. The arrangement: expressed in transfected cells; crude membranes. A digest of the protocol: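 Assay buffer: HEPES 25 mM, pH 7.4, CaCl2 2.5 mM, MgCl2 1 mM, with EDTA-free protease inhibitors. Receptor came from crude cell membranes prepared by homogenization and centrifugation at 4° C. IC50s came from four-parameter fits (maximum, minimum, IC50, Hill slope) and were expressed as Ki geometric means with SEM.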

In test [5] the target is T3, human GLP-1R. In words: GLP-1R HEK293 cell membrane [35S]GTPγS binding assay. In kind it is biochemical. The arrangement: expressed in transfected cells; host or cells: HEK293 cells expressing human GLP-1R; membranes. A digest of the protocol: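 Membranes from HEK293 cells expressing the receptor incubated with peptide and […] [35S]GTPγS in HEPES pH 7.4 buffer with NaCl, MgCl2, saponin and BSA, 30 min at room temperature. Gαs-bound label captured by anti-Gαs antibody/SPA beads and counted; EC50 from four-parameter logistic fit.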
(GTPγS is a poorly hydrolysed GTP analogue; its binding reports G protein activation.)

T3 sequence (P43220 24-463): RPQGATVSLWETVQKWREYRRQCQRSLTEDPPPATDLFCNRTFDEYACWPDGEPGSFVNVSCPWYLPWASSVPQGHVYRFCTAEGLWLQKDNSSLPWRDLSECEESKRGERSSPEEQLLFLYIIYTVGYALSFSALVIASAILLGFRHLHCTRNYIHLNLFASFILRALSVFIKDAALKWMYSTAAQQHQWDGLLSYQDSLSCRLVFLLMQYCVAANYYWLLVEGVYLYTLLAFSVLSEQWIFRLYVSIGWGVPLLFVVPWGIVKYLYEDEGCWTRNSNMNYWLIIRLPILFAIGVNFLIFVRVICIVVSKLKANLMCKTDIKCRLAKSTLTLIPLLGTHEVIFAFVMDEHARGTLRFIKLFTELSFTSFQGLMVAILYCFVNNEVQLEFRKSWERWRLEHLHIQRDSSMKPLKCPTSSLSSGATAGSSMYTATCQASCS
human GLP-1 receptor (GLP-1R), sequence (P43220 24-463): as above
T1 sequence (P47871 26-477): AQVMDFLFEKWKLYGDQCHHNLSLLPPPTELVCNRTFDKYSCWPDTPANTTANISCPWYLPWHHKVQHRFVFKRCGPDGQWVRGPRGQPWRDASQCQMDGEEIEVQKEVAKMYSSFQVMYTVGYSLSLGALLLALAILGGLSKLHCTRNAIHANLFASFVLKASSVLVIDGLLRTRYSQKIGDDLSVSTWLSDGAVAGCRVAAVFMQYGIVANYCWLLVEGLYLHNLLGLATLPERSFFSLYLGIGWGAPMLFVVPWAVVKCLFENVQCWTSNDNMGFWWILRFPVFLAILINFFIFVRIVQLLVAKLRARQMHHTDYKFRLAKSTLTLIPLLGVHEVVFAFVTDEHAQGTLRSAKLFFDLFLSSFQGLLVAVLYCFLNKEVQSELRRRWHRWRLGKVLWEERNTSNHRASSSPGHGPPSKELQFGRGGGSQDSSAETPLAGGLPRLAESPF

The Ki is a dissociation constant, usually derived from enzyme kinetics or from competition with a known ligand. The term EC50 denotes the midpoint of the concentration-response curve. In the case of `CC[C@H](C)[C@H](NC(=O)[C@H](CC(C)C)NC(=O)[C@H](Cc1ccc(O)cc1)NC(=O)[C@@H](CCC(=O)O)NC(=O)[C@@H](NC(=O)[C@H](Cc1ccccc1)NC(=O)[C@H](CCC(=O)O)NC(=O)C(C)(C)NC(=O)[C@H](CCC(N)=O)NC(=O)[C@H](C)NC(=O)[C@H](CCCCNC(=O)COCCOCCNC(=O)COCCOCCNC(=O)CC[C@H](NC(=O)CCCCCCCCCCCCCCCCCCC(=O)O)C(=O)O)NC(=O)[C@H](CCCN)NC(=O)[C@H](CC(=O)O)NC(=O)[C@H](CC(C)C)NC(=O)[C@](C)(CC(C)C)NC(=O)[C@@H](NC(=O)[C@H](CO)NC(=O)[C@H](Cc1ccc(O)cc1)NC(=O)[C@H](CC(=O)O)NC(=O)[C@H](CO)NC(=O)[C@@H](NC(=O)[C@](C)(Cc1ccccc1F)NC(=O)[C@@H](NC(=O)CNC(=O)[C@H](CCC(=O)O)NC(=O)C(C)(C)NC(=O)[C@@H](N)Cc1ccc(O)cc1)[C@@H](C)O)[C@@H](C)O)[C@@H](C)CC)[C@@H](C)CC)C(=O)N[C@@H](CCC(=O)O)C(=O)NCC(=O)NCC(=O)N1CCC[C@H]1C(=O)N[C@@H](CO)C(=O)N[C@@H](CO)C(=O)NCC(=O)N[C@@H](C)C(=O)N1CCC[C@H]1C(=O)N1CCC[C@H]1C(=O)N1CCC[C@H]1C(=O)N[C@@H](CO)C(N)=O` [Example 3], the Ki in test [1] came to 242 nM; in test [4], 2.23 nM. For the same molecule, the EC50 came to 0.0338 nM in test [2], 0.0411 nM in test [3] and 0.421 nM in test [5].

Take `CC[C@H](C)[C@H](NC(=O)[C@H](CC(C)C)NC(=O)[C@H](Cc1ccc(O)cc1)NC(=O)[C@@H](CCC(=O)O)NC(=O)[C@@H](NC(=O)[C@H](Cc1ccccc1)NC(=O)[C@H](CCC(=O)O)NC(=O)C(C)(C)NC(=O)[C@H](CCC(N)=O)NC(=O)[C@H](C)NC(=O)[C@H](CCCCNC(=O)COCCOCCNC(=O)COCCOCCNC(=O)CC[C@H](NC(=O)CCCCCCCCCCCCCCCCCCC(=O)O)C(=O)O)NC(=O)[C@H](CCC(=O)O)NC(=O)[C@H](CC(=O)O)NC(=O)[C@H](CC(C)C)NC(=O)[C@](C)(CC(C)C)NC(=O)[C@@H](NC(=O)[C@H](CO)NC(=O)[C@H](Cc1ccc(O)cc1)NC(=O)[C@H](CC(=O)O)NC(=O)[C@H](CO)NC(=O)[C@@H](NC(=O)[C@](C)(Cc1ccccc1F)NC(=O)[C@@H](NC(=O)CNC(=O)[C@H](CCC(=O)O)NC(=O)C(C)(C)NC(=O)[C@@H](N)Cc1ccc(O)cc1)[C@@H](C)O)[C@@H](C)O)[C@@H](C)CC)[C@@H](C)CC)C(=O)N[C@@H](CCC(=O)O)C(=O)NCC(=O)NCC(=O)N1CCC[C@H]1C(=O)N[C@@H](CO)C(=O)N[C@@H](CO)C(=O)NCC(=O)N[C@@H](C)C(=O)N1CCC[C@H]1C(=O)N1CCC[C@H]1C(=O)N1CCC[C@H]1C(=O)N[C@@H](CO)C(N)=O` [Example 1] (H-Y[Aib]EGT[αMePhe(2-F)]TSDYSI[αMeL]LDEK([AEEA-AEEA-γGlu-C20 diacid])AQ[Aib]EFI[dE]YLIEGGPSSGAPPPS-NH2): the Ki worked out at 207 nM in test [1] and 6.67 nM in test [4]. Besides, the EC50 in test [2] stood at 0.041 nM; in test [3], 0.0356 nM; in test [5] it was 0.235 nM.

On to `CC[C@H](C)[C@H](NC(=O)[C@H](CC(C)C)NC(=O)[C@H](Cc1ccc(O)cc1)NC(=O)[C@H](CCC(=O)O)NC(=O)[C@@H](NC(=O)[C@H](Cc1ccccc1)NC(=O)[C@H](C)NC(=O)C(C)(C)NC(=O)[C@H](CCC(N)=O)NC(=O)[C@H](C)NC(=O)[C@H](CCCCNC(=O)COCCOCCNC(=O)COCCOCCNC(=O)CC[C@H](NC(=O)CCCCCCCCCCCCCCCCC(=O)O)C(=O)O)NC(=O)[C@H](CCCCN)NC(=O)[C@H](CC(=O)O)NC(=O)[C@H](CC(C)C)NC(=O)[C@H](CC(C)C)NC(=O)[C@@H](NC(=O)[C@H](CO)NC(=O)[C@H](Cc1ccc(O)cc1)NC(=O)[C@H](CC(=O)O)NC(=O)[C@H](CO)NC(=O)[C@@H](NC(=O)[C@H](Cc1ccccc1)NC(=O)[C@@H](NC(=O)CNC(=O)[C@H](CCC(=O)O)NC(=O)C(C)(C)NC(=O)[C@@H](N)Cc1ccc(O)cc1)[C@@H](C)O)[C@@H](C)O)[C@@H](C)CC)[C@@H](C)CC)C(=O)N[C@@H](C)C(=O)NCC(=O)NCC(=O)N1CCC[C@H]1C(=O)N[C@@H](CO)C(=O)N[C@@H](CO)C(=O)NCC(=O)N[C@@H](C)C(=O)N1CCC[C@H]1C(=O)N1CCC[C@H]1C(=O)N1CCC[C@H]1C(=O)N[C@@H](CO)C(N)=O` [Example 316] (H-Y[Aib]EGTFTSDYSILLDKK([AEEA-AEEA-γGlu-C18 diacid])AQ[Aib]AFIEYLIAGGPSSGAPPPS-NH2), for which the Ki amounted to 654 nM in test [1] (read-out: hGLcgR Ki, nM (SEM, n)) and 0.957 nM in test [4] (read-out: hGLP1R Ki, (nM) (SEM, n)). For the same molecule, the EC50 is 0.122 nM in test [2] (HEK293 cells expressing hGLP-1R, 0.1% Casein, geometric mean, read-out: hGLP1R cAMP Rel EC50 nM (SEM, n)); 0.024 nM in test [3] (HEK293 cells expressing hGIPR, 0.1% Casein, geometric mean, read-out: hGIPR cAMP Rel EC50 nM (SEM, n)); 0.766 nM in test [5] (HEK293 cell membranes expressing human GLP-1R, [35S]GTPγS binding, read-out: hGLP1R GTPgS Rel EC50 nM (SEM, n)).

Regarding `CC[C@H](C)[C@H](NC(=O)[C@H](CC(C)C)NC(=O)[C@H](Cc1ccc(O)cc1)NC(=O)[C@@H](CCC(=O)O)NC(=O)[C@@H](NC(=O)[C@H](Cc1ccccc1)NC(=O)[C@H](CCC(=O)O)NC(=O)C(C)(C)NC(=O)[C@H](CCC(N)=O)NC(=O)[C@H](C)NC(=O)[C@H](CCCCNC(=O)COCCOCCNC(=O)COCCOCCNC(=O)CC[C@H](NC(=O)CCCCCCCCCCCCCCCCC(=O)O)C(=O)O)NC(=O)[C@H](CCCN)NC(=O)[C@H](CC(=O)O)NC(=O)[C@H](CC(C)C)NC(=O)[C@](C)(CC(C)C)NC(=O)[C@@H](NC(=O)[C@H](CO)NC(=O)[C@H](Cc1ccc(O)cc1)NC(=O)[C@H](CC(=O)O)NC(=O)[C@H](CO)NC(=O)[C@@H](NC(=O)[C@](C)(Cc1ccccc1F)NC(=O)[C@@H](NC(=O)CNC(=O)[C@H](CCC(=O)O)NC(=O)C(C)(C)NC(=O)[C@@H](N)Cc1ccc(O)cc1)[C@@H](C)O)[C@@H](C)O)[C@@H](C)CC)[C@@H](C)CC)C(=O)N[C@@H](CCC(=O)O)C(=O)NCC(=O)NCC(=O)N1CCC[C@H]1C(=O)N[C@@H](CO)C(=O)N[C@@H](CO)C(=O)NCC(=O)N[C@@H](C)C(=O)N1CCC[C@H]1C(=O)N1CCC[C@H]1C(=O)N1CCC[C@H]1C(=O)N[C@@H](CO)C(N)=O` [Example 2] (H-Y[Aib]EGT[αMePhe(2-F)]TSDYSI[αMeL]LD[Orn]K([AEEA-AEEA-γGlu-C18 diacid])AQ[Aib]EFI[dE]YLIEGGPSSGAPPPS-NH2; N-terminus assumed), the inhibition constant (Ki) in test [1] was determined as 361 nM; in test [4] it was 2.35 nM. Besides, the EC50 amounted to 0.0441 nM in test [2], 0.0339 nM in test [3] and 0.642 nM in test [5].
